Measured values reported in ChEMBL document CHEMBL1201862, “PubChem BioAssay data set” (2004).
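Where inhibition never reached the appropriate level, the endpoint shown equals the highest concentration tested. Otherwise, values were interpolated linearly from a five-concentration, 48-hour dose response in 96-well plates. GI50 = concentration required for 50% inhibition of growth.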 Calls of active or inactive are those of the source. Rule as the data show it: active = GI50 up to about 1.1 µM and inactive = higher.

Legend:
Assay in all cases: DTP human tumour cell line panel, 48 h
786-0 = test system: 786-0
A498 = test system: A498
A549 = test system: A549
ACHN = test system: ACHN
BT-549 = test system: BT-549
CAKI-1 = test system: CAKI-1
CCRF-CEM = test system: CCRF-CEM
COLO 205 = test system: COLO 205
DU-145 = test system: DU-145
EKVX = test system: EKVX
HCC 2998 = test system: HCC 2998
HCT-116 = test system: HCT-116
HCT-15 = test system: HCT-15
HL-60 = test system: HL-60
HOP-62 = test system: HOP-62
HOP-92 = test system: HOP-92
HT-29 = test system: HT-29
Hs-578T = test system: Hs-578T
IGROV-1 = test system: IGROV-1
K562 = test system: K562
KM12 = test system: KM12
LOX IMVI = test system: LOX IMVI
M14 = test system: M14
MCF7 = test system: MCF7
MDA-MB-231 = test system: MDA-MB-231
MDA-MB-435 = test system: MDA-MB-435
MDA-N = test system: MDA-N
MOLT-4 = test system: MOLT-4
Malme-3M = test system: Malme-3M
NCI-H226 = test system: NCI-H226
NCI-H23 = test system: NCI-H23
NCI-H460 = test system: NCI-H460
NCI-H522 = test system: NCI-H522
NCI/ADR-RES = test system: NCI/ADR-RES
OVCAR-3 = test system: OVCAR-3
OVCAR-4 = test system: OVCAR-4
OVCAR-5 = test system: OVCAR-5
OVCAR-8 = test system: OVCAR-8
PC-3 = test system: PC-3
RPMI-8226 = test system: RPMI-8226
SF-268 = test system: SF-268
SF-295 = test system: SF-295
SF-539 = test system: SF-539
SK-MEL-28 = test system: SK-MEL-28
SK-MEL-2 = test system: SK-MEL-2
SK-MEL-5 = test system: SK-MEL-5
SK-OV-3 = test system: SK-OV-3
SN12C = test system: SN12C
SNB-19 = test system: SNB-19
SR = test system: SR
SW-620 = test system: SW-620
T47D = test system: T47D
TK-10 = test system: TK-10
U-251 = test system: U-251
UACC-257 = test system: UACC-257
UACC-62 = test system: UACC-62
UO-31 = test system: UO-31
SNB-75 = test system: SNB-75

Cc1n[nH]c(=O)n1/N=C/c1cccnc1
GI50 (786-0): > 100 µM (inactive) | GI50 (A498): > 100 µM (inactive) | GI50 (A549): > 100 µM (inactive) | GI50 (ACHN): > 100 µM (inactive) | GI50 (BT-549): > 100 µM (inactive) | GI50 (CAKI-1): > 100 µM (inactive) | GI50 (CCRF-CEM): > 100 µM (inactive) | GI50 (COLO 205): > 100 µM (inactive) | GI50 (DU-145): > 100 µM (inactive) | GI50 (EKVX): > 100 µM (inactive) | GI50 (HCC 2998): > 100 µM (inactive) | GI50 (HCT-116): > 100 µM (inactive) | GI50 (HCT-15): > 100 µM | GI50 (HL-60): > 100 µM (inactive) | GI50 (HOP-62): > 100 µM (inactive) | GI50 (HOP-92): 33.4 µM (inactive) | GI50 (HT-29): > 100 µM (inactive) | GI50 (Hs-578T): > 100 µM (inactive) | GI50 (IGROV-1): > 100 µM (inactive) | GI50 (K562): > 100 µM (inactive) | GI50 (KM12): > 100 µM (inactive) | GI50 (LOX IMVI): > 100 µM (inactive) | GI50 (M14): > 100 µM (inactive) | GI50 (MCF7): > 100 µM (inactive) | GI50 (MDA-MB-231): > 100 µM (inactive) | GI50 (MDA-MB-435): > 100 µM (inactive) | GI50 (MDA-N): > 100 µM (inactive) | GI50 (MOLT-4): > 100 µM (inactive) | GI50 (Malme-3M): > 100 µM (inactive) | GI50 (NCI-H226): > 100 µM (inactive) | GI50 (NCI-H23): > 100 µM (inactive) | GI50 (NCI-H460): > 100 µM (inactive) | GI50 (NCI-H522): > 100 µM (inactive) | GI50 (NCI/ADR-RES): > 100 µM (inactive) | GI50 (OVCAR-3): > 100 µM (inactive) | GI50 (OVCAR-4): > 100 µM (inactive) | GI50 (OVCAR-5): > 100 µM (inactive) | GI50 (OVCAR-8): > 100 µM (inactive) | GI50 (PC-3): > 100 µM (inactive) | GI50 (RPMI-8226): > 100 µM (inactive) | GI50 (SF-268): > 100 µM (inactive) | GI50 (SF-295): > 100 µM (inactive) | GI50 (SF-539): > 100 µM (inactive) | GI50 (SK-MEL-28): > 100 µM (inactive) | GI50 (SK-MEL-2): > 100 µM (inactive) | GI50 (SK-MEL-5): > 100 µM (inactive) | GI50 (SK-OV-3): > 100 µM (inactive) | GI50 (SN12C): > 100 µM (inactive) | GI50 (SNB-19): > 100 µM (inactive) | GI50 (SR): > 100 µM (inactive) | GI50 (SW-620): > 100 µM (inactive) | GI50 (T47D): > 100 µM (inactive) | GI50 (TK-10): > 100 µM (inactive) | GI50 (U-251): > 100 µM (inactive) | GI50 (UACC-257): > 100 µM (inactive) | GI50 (UACC-62): > 100 µM (inactive) | GI50 (UO-31): > 100 µM (inactive)

CCC1(O)C(=O)OCc2c1cc1n(c2=O)Cc2cc3cc(N)ccc3nc2-1 (stereo not drawn)
GI50 (786-0): < 0.01 µM (active) | GI50 (A498): 0.125 µM (active) | GI50 (A549): 0.0103 µM (active) | GI50 (ACHN): < 0.01 µM (active) | GI50 (BT-549): < 0.01 µM (active) | GI50 (CAKI-1): < 0.01 µM (active) | GI50 (CCRF-CEM): < 0.01 µM (active) | GI50 (COLO 205): 0.366 µM (active) | GI50 (DU-145): < 0.01 µM (active) | GI50 (EKVX): 0.855 µM (active) | GI50 (HCC 2998): 0.0345 µM (active) | GI50 (HCT-116): < 0.01 µM (active) | GI50 (HCT-15): 0.0721 µM | GI50 (HL-60): < 0.01 µM (active) | GI50 (HOP-62): < 0.01 µM (active) | GI50 (HOP-92): 0.0535 µM (active) | GI50 (HT-29): 0.0311 µM (active) | GI50 (Hs-578T): 1.42 µM (inactive) | GI50 (IGROV-1): 0.109 µM (active) | GI50 (K562): < 0.0127 µM (active) | GI50 (KM12): 0.0593 µM (active) | GI50 (LOX IMVI): < 0.01 µM (active) | GI50 (M14): < 0.01 µM (active) | GI50 (MCF7): < 0.01 µM (active) | GI50 (MDA-MB-231): 0.516 µM (active) | GI50 (MDA-MB-435): 0.0241 µM (active) | GI50 (MDA-N): 0.0232 µM (active) | GI50 (MOLT-4): < 0.01 µM (active) | GI50 (Malme-3M): 0.0299 µM (active) | GI50 (NCI-H226): < 0.0338 µM (active) | GI50 (NCI-H23): < 0.01 µM (active) | GI50 (NCI-H460): < 0.01 µM (active) | GI50 (NCI-H522): < 0.01 µM (active) | GI50 (NCI/ADR-RES): < 0.01 µM (active) | GI50 (OVCAR-3): 0.0466 µM (active) | GI50 (OVCAR-4): 0.257 µM (active) | GI50 (OVCAR-5): < 0.0271 µM (active) | GI50 (OVCAR-8): < 0.0128 µM (active) | GI50 (PC-3): 0.0702 µM (active) | GI50 (RPMI-8226): 0.0341 µM (active) | GI50 (SF-268): < 0.01 µM (active) | GI50 (SF-295): < 0.01 µM (active) | GI50 (SF-539): < 0.01 µM (active) | GI50 (SK-MEL-2): 0.0964 µM (active) | GI50 (SK-MEL-5): < 0.0136 µM (active) | GI50 (SK-OV-3): < 0.01 µM (active) | GI50 (SN12C): < 0.01 µM (active) | GI50 (SNB-19): < 0.01 µM (active) | GI50 (SNB-75): < 0.01 µM (active) | GI50 (SR): < 0.01 µM (active) | GI50 (SW-620): 0.0219 µM (active) | GI50 (T47D): < 0.01 µM (active) | GI50 (TK-10): 1.9 µM (inactive) | GI50 (U-251): < 0.01 µM (active) | GI50 (UACC-62): < 0.01 µM (active) | GI50 (UO-31): < 0.01 µM (active)
